{"source": "ChEMBL document CHEMBL4339203", "about": "“Structural requirements of cholenamide derivatives as the LXR ligands” (Bioorg Med Chem Lett, 2019)", "key": {"[1]": {"target": "T1, Oxysterols receptor LXR-beta (Rattus norvegicus) (UniProt Q62755)", "T1 sequence (whole entry)": "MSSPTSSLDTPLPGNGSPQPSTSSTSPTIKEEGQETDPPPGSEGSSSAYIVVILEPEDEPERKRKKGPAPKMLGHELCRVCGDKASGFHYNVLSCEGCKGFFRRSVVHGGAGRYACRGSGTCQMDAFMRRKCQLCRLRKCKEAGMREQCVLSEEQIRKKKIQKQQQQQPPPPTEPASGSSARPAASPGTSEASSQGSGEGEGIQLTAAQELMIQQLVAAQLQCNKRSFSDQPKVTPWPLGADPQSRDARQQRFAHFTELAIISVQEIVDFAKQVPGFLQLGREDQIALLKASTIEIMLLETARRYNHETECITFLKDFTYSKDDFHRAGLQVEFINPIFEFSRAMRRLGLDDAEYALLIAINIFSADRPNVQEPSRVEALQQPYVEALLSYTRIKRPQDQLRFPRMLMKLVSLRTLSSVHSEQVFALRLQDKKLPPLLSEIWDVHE", "test": "Transactivation of rat LXRbeta expressed in HEK293FT cells measured after 14 to 18 hrs by dual-luciferase reporter gene assay relative to T0901317", "type": "cell-based"}, "[2]": {"target": "T1, Oxysterols receptor LXR-beta (Rattus norvegicus)", "test": "Transactivation of rat LXRbeta expressed in HEK293FT cells co-expressing RXR at 5 uM measured after 14 to 18 hrs by dual-luciferase reporter gene assay", "type": "cell-based"}, "[3]": {"target": "T2, Oxysterols receptor LXR-alpha (Rattus norvegicus, UniProt Q62685)", "T2 sequence (Q62685 whole entry)": "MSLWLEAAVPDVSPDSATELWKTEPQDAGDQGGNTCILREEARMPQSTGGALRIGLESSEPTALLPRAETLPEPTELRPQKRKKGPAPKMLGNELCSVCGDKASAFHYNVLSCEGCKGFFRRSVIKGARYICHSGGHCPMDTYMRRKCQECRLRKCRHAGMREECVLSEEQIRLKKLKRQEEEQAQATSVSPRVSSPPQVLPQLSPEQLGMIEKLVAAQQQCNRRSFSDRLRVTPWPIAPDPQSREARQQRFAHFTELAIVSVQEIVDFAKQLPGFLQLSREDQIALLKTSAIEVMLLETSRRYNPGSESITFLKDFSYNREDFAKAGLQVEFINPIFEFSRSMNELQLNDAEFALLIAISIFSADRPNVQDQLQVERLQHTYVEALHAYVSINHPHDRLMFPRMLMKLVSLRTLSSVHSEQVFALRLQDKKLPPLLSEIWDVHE", "test": "Transactivation of rat LXRalpha expressed in HEK293FT cells co-expressing RXR at 5 uM measured after 14 to 18 hrs by dual-luciferase reporter gene assay", "type": "cell-based"}, "[4]": {"target": "T3, Oxysterols receptor LXR-beta (Rattus norvegicus, UniProt Q62755)", "T3 sequence (Q62755 whole entry)": "T1 sequence (whole entry)", "test": "Transactivation of rat LXRbeta expressed in HEK293FT cells measured after 14 to 18 hrs by dual-luciferase reporter gene assay", "type": "cell-based"}, "[5]": {"target": "T1, Oxysterols receptor LXR-beta (Rattus norvegicus)", "test": "Transactivation of rat LXRbeta expressed in HEK293FT cells at 5 uM measured after 14 to 18 hrs by dual-luciferase reporter gene assay", "type": "cell-based"}, "[6]": {"test": "Ratio of compound effect for transactivation of rat LXRalpha expressed in HEK293FT cells to compound effect for transactivation of rat LXRbeta expressed in HEK293FT cells"}}, "note": "Calls of active or inactive are those of the source. No cut-off for these calls is given here."}
{"smiles": "CCN(C)C(=O)C(C)C[C@@H](C)[C@H]1CC[C@H]2[C@@H]3CC=C4C[C@@H](O)CC[C@]4(C)[C@H]3CC[C@]12C", "note": "(stereo in doubt; 11) [listing 1 of 2 here]", "values": [{"measurement": "Efficacy", "setting": "[1]", "result": 65, "unit": "%"}]}
{"smiles": "CCN(CC)C(=O)CC[C@@H](C)[C@H]1CC[C@H]2[C@@H]3CC=C4C[C@@H](O)CC[C@]4(C)[C@H]3CC[C@]12C", "values": [{"measurement": "Activity", "setting": "[2]", "result": "Active"}, {"measurement": "Activity", "setting": "[3]", "result": "Active"}, {"measurement": "Efficacy", "setting": "[1]", "result": 211, "unit": "%"}, {"measurement": "EC50", "setting": "[4]; read-out: EC50", "result": 344, "unit": "nM"}, {"measurement": "Activity", "setting": "[5]", "result": "Active"}]}
{"smiles": "C[C@H](C[C@@H]1CCCCN(C)C1=O)[C@H]1CC[C@H]2[C@@H]3CC=C4C[C@@H](O)CC[C@]4(C)[C@H]3CC[C@]12C", "values": [{"measurement": "Efficacy", "setting": "[1]", "result": 80, "unit": "%"}, {"measurement": "EC50", "setting": "[4]; read-out: EC50", "result": 462, "unit": "nM"}]}
{"smiles": "C[C@H](CCC(=O)N(C)C)[C@H]1CC[C@H]2[C@@H]3CC=C4C[C@@H](O)CC[C@]4(C)[C@H]3CC[C@]12C", "values": [{"measurement": "Efficacy", "setting": "[1]", "result": 100, "unit": "%"}, {"measurement": "EC50", "setting": "[4]; read-out: EC50", "result": "124 to 464", "unit": "nM"}, {"measurement": "Activity", "setting": "[5]", "result": "Active"}]}
{"smiles": "CCCN(C)C(=O)CC[C@@H](C)[C@H]1CC[C@H]2[C@@H]3CC=C4C[C@@H](O)CC[C@]4(C)[C@H]3CC[C@]12C", "values": [{"measurement": "Activity", "setting": "[2]", "result": "Active"}, {"measurement": "Activity", "setting": "[3]", "result": "Active"}, {"measurement": "Efficacy", "setting": "[1]", "result": 102, "unit": "%"}, {"measurement": "EC50", "setting": "[4]; read-out: EC50", "result": 1020, "unit": "nM"}]}
{"smiles": "C[C@H](CCC(=O)N1CCCC1)[C@H]1CC[C@H]2[C@@H]3CC=C4C[C@@H](O)CC[C@]4(C)[C@H]3CC[C@]12C", "values": [{"measurement": "Efficacy", "setting": "[1]", "result": 99, "unit": "%"}, {"measurement": "EC50", "setting": "[4]; read-out: EC50", "result": 165, "unit": "nM"}, {"measurement": "Activity", "setting": "[5]", "result": "Active"}]}
{"smiles": "CCN1CCC[C@@H](C[C@@H](C)[C@H]2CC[C@H]3[C@@H]4CC=C5C[C@@H](O)CC[C@]5(C)[C@H]4CC[C@]23C)C1=O", "values": [{"measurement": "Efficacy", "setting": "[1]", "result": 62, "unit": "%"}, {"measurement": "EC50", "setting": "[4]; read-out: EC50", "result": 643, "unit": "nM"}]}
{"smiles": "C[C@H](C[C@H]1CCCN(C)C1=O)[C@H]1CC[C@H]2[C@@H]3CC=C4C[C@@H](O)CC[C@]4(C)[C@H]3CC[C@]12C", "values": [{"measurement": "EC50", "setting": "[4]; read-out: EC50", "result": 239, "unit": "nM"}]}
{"smiles": "CCN(C)C(=O)C(C)C[C@@H](C)[C@H]1CC[C@H]2[C@@H]3CC=C4C[C@@H](O)CC[C@]4(C)[C@H]3CC[C@]12C", "note": "(stereo in doubt; 10) [listing 1 of 2 here]", "values": [{"measurement": "EC50", "setting": "[4]; read-out: EC50", "result": 3900, "unit": "nM"}]}
{"smiles": "C[C@H](C[C@H]1CCN(C)C1=O)[C@H]1CC[C@H]2[C@@H]3CC=C4C[C@@H](O)CC[C@]4(C)[C@H]3CC[C@]12C", "values": [{"measurement": "EC50", "setting": "[4]; read-out: EC50", "result": 1290, "unit": "nM"}]}
{"smiles": "O=S(=O)(c1ccccc1)N(CC(F)(F)F)c1ccc(C(O)(C(F)(F)F)C(F)(F)F)cc1", "values": [{"measurement": "Efficacy", "setting": "[1]", "result": 98, "unit": "%"}]}
{"smiles": "CCN(C)C(=O)C(C)C[C@@H](C)[C@H]1CC[C@H]2[C@@H]3CC=C4C[C@@H](O)CC[C@]4(C)[C@H]3CC[C@]12C", "note": "(stereo in doubt; 11) [listing 2 of 2 here]", "values": [{"measurement": "EC50", "setting": "[4]; read-out: EC50", "result": 1990, "unit": "nM"}]}
{"smiles": "CCN(C)C(=O)C(C)C[C@@H](C)[C@H]1CC[C@H]2[C@@H]3CC=C4C[C@@H](O)CC[C@]4(C)[C@H]3CC[C@]12C", "note": "(stereo in doubt; 10) [listing 2 of 2 here]", "values": [{"measurement": "Efficacy", "setting": "[1]", "result": 39, "unit": "%"}]}
{"smiles": "CC(C)NC(=O)CC[C@@H](C)[C@H]1CC[C@H]2[C@@H]3CC=C4C[C@@H](O)CC[C@]4(C)[C@H]3CC[C@]12C", "values": [{"measurement": "Efficacy", "setting": "[1]", "result": 85, "unit": "%"}, {"measurement": "EC50", "setting": "[4]; read-out: EC50", "result": 862, "unit": "nM"}, {"measurement": "Activity", "setting": "[5]", "result": "Active"}]}
{"smiles": "CC(C)N(C)C(=O)CC[C@@H](C)[C@H]1CC[C@H]2[C@@H]3CC=C4C[C@@H](O)CC[C@]4(C)[C@H]3CC[C@]12C", "values": [{"measurement": "Activity", "setting": "[2]", "result": "Active"}, {"measurement": "Activity", "setting": "[3]", "result": "Active"}, {"measurement": "Efficacy", "setting": "[1]", "result": 109, "unit": "%"}, {"measurement": "EC50", "setting": "[4]; read-out: EC50", "result": 623, "unit": "nM"}]}
{"smiles": "CCN(C)C(=O)CC[C@@H](C)[C@H]1CC[C@H]2[C@@H]3CC=C4C[C@@H](O)CC[C@]4(C)[C@H]3CC[C@]12C", "values": [{"measurement": "Activity", "setting": "[2]", "result": "Active"}, {"measurement": "Activity", "setting": "[3]", "result": "Active"}, {"measurement": "Efficacy", "setting": "[1]", "result": 108, "unit": "%"}, {"measurement": "EC50", "setting": "[4]; read-out: EC50", "result": 786, "unit": "nM"}]}
{"smiles": "CC(C)N(C(=O)CC[C@@H](C)[C@H]1CC[C@H]2[C@@H]3CC=C4C[C@@H](O)CC[C@]4(C)[C@H]3CC[C@]12C)C(C)C", "values": [{"measurement": "Activity", "setting": "[2]", "result": "Active"}, {"measurement": "Activity", "setting": "[3]", "result": "Active"}, {"measurement": "Ratio", "setting": "[6]", "result": 2}, {"measurement": "Efficacy", "setting": "[1]", "result": 148, "unit": "%"}, {"measurement": "EC50", "setting": "[4]; read-out: EC50", "result": 1110, "unit": "nM"}, {"measurement": "Activity", "setting": "[5]", "result": "Active"}]}
{"smiles": "C[C@H](C[C@@H]1CCN(C)C1=O)[C@H]1CC[C@H]2[C@@H]3CC=C4C[C@@H](O)CC[C@]4(C)[C@H]3CC[C@]12C", "values": [{"measurement": "EC50", "setting": "[4]", "result": "Not Active"}]}
{"smiles": "C[C@H](C[C@@H]1CCCN(C)C1=O)[C@H]1CC[C@H]2[C@@H]3CC=C4C[C@@H](O)CC[C@]4(C)[C@H]3CC[C@]12C", "values": [{"measurement": "EC50", "setting": "[4]", "result": "Not Active"}]}
{"smiles": "C[C@H](CCC(=O)N1CCCCC1)[C@H]1CC[C@H]2[C@@H]3CC=C4C[C@@H](O)CC[C@]4(C)[C@H]3CC[C@]12C", "values": [{"measurement": "Efficacy", "setting": "[1]", "result": 134, "unit": "%"}, {"measurement": "EC50", "setting": "[4]; read-out: EC50", "result": 127, "unit": "nM"}, {"measurement": "Activity", "setting": "[5]", "result": "Active"}]}
